Like-named read-outs stand apart in the source and are kept apart here.
Tests used:
Type in all cases: biochemical
[1] = biological target: KAT6A Full length enzyme (Homo sapiens (Human), UniProt Q92794); experiment: KAT6A assay (SAMDI-MS acetylation of H3 1-21 peptide); conditions: replicate number in parentheses
[2] = biological target: KAT7+JADE1+EAF6+ING5 4 protein complex (Homo sapiens (Human), UniProt O95251); experiment: KAT7 JADE1 assay (SAMDI-MS acetylation of H3 1-21 peptide); conditions: replicate number in parentheses
[3] = biological target: KAT8 Full length enzyme (Homo sapiens (Human), UniProt Q9H7Z6); experiment: KAT8 assay (SAMDI-MS acetylation of H3 1-21 peptide); conditions: replicate number in parentheses
Chain of KAT8 Full length enzyme (Q9H7Z6 whole entry): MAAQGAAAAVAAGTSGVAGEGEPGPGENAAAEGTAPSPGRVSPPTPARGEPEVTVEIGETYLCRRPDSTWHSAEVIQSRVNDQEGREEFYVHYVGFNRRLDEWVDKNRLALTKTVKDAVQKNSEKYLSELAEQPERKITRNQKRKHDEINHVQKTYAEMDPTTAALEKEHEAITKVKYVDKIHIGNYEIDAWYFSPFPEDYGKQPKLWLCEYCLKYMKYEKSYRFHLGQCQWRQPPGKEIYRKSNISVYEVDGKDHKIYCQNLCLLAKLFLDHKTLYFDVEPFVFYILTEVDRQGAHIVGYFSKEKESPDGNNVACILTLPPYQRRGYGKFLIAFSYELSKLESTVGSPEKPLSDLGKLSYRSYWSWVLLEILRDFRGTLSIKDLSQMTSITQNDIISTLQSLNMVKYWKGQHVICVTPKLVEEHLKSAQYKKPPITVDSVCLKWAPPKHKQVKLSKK

[4] = biological target: KAT5 Full length enzyme (Homo sapiens (Human), UniProt Q92993); experiment: KAT5 assay (SAMDI-MS acetylation of H4 1-21 peptide); conditions: Morrison equation fit; replicate number in parentheses; read-out: KAT5 Ki (nM) (replicate number)
Chain of KAT5 Full length enzyme (Q92993 whole entry): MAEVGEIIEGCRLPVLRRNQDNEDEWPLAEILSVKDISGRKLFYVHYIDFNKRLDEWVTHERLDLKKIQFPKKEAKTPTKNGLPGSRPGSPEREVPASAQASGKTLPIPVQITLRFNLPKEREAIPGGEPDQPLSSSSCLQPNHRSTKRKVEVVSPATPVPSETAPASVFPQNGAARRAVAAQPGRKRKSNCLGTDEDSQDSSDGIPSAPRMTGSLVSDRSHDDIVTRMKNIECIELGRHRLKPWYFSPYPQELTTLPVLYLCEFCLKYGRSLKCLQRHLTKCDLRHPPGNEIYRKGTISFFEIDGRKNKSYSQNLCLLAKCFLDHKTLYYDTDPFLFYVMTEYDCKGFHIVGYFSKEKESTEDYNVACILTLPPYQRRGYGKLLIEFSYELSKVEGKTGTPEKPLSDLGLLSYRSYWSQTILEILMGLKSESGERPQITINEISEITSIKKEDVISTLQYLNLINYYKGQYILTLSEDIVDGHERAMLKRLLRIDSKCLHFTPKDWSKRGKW

[5] = Morrison equation fit, read-out: KAT6A Ki (nM) (replicate number)
[6] = Morrison equation fit, read-out: KAT7 JADE1 Ki (nM) (replicate number)
[7] = Morrison equation fit, read-out: KAT8 Ki (nM) (replicate number)
[8] = read-out: KAT6A Ki (nM) (replicate)
[9] = read-out: KAT7 JADE1 Ki (nM) (replicate)
[10] = read-out: KAT8 Ki (nM) (replicate)

Chain of KAT6A Full length enzyme (Q92794 other isoform, or with tags, fused parts or gaps): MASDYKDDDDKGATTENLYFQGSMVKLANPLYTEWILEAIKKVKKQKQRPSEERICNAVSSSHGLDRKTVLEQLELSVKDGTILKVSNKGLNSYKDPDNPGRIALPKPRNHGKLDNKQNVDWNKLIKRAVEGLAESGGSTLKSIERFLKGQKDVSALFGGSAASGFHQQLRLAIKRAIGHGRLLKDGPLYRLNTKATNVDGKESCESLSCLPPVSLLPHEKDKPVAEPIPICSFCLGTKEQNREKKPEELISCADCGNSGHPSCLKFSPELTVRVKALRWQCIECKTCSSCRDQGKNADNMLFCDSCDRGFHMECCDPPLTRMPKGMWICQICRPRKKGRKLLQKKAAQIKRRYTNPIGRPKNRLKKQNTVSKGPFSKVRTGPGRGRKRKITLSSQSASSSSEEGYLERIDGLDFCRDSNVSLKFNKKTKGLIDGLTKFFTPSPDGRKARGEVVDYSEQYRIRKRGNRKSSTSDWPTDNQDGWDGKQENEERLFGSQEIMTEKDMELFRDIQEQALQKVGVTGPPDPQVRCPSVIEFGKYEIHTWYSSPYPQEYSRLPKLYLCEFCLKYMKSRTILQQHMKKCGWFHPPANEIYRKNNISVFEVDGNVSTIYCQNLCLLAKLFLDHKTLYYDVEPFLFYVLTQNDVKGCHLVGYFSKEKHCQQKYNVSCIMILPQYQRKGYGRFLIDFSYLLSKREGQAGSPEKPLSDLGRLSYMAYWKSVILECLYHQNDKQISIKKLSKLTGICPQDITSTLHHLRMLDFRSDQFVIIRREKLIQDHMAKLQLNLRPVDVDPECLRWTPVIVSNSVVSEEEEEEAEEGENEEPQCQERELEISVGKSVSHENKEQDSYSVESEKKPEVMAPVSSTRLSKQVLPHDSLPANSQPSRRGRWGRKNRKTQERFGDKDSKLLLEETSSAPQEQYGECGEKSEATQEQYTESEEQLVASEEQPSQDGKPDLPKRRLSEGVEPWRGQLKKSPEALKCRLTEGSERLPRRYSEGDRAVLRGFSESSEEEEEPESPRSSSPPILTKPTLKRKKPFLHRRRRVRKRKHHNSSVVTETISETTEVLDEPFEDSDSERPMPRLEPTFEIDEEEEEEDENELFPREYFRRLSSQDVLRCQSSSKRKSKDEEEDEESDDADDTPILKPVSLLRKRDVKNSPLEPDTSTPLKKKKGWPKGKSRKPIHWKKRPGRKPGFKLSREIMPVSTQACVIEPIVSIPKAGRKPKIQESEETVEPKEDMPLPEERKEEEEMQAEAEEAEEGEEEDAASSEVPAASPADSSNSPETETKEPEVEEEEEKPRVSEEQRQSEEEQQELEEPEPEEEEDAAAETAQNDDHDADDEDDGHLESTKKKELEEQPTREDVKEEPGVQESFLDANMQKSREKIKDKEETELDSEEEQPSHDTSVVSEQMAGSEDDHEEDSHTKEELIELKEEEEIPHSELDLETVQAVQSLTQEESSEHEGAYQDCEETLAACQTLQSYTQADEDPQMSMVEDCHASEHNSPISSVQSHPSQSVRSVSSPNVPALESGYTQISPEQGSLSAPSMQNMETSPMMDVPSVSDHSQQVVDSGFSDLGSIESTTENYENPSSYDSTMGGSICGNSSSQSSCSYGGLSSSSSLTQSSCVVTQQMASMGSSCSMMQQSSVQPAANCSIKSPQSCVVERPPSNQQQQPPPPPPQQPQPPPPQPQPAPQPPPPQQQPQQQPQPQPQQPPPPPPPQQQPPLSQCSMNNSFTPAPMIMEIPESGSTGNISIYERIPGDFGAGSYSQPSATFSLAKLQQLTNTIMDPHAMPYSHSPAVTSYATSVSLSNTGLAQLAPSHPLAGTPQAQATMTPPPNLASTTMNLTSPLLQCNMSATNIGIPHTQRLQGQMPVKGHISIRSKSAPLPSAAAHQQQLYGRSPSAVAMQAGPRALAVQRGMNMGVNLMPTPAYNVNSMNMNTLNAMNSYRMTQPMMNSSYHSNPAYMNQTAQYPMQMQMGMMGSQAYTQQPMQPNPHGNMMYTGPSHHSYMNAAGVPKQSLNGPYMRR

Row | Compound | Ki [1, 5] [nM] | Ki [2, 6] [nM] | Ki [3, 7] [nM] | Ki [4] [nM] | Ki [1, 8] [nM] | Ki [2, 9] [nM] | Ki [3, 10] [nM]
1 | CCc1cc(Nc2cc3onc(NS(=O)(=O)c4cccc(Oc5ccc(F)cc5)c4)c3cc2OC)n[nH]1 [Example 128, N-{6-[(5-ethyl-1 H-pyrazol-3-yl)amino]-5-methoxy-1,2-benzoxazol-3-yl}-3-(4-fluorophenoxy)benzene-1-sulfonamide] | 38.1 | 212 | > 13000 | 7830 |  |  | 
2 | COc1cc2c(NS(=O)(=O)c3c(OC)cc(C(C)OC)cc3OC)noc2cc1Nc1cc(C2CC2)[nH]n1 (single isomer, unassigned) [Example 272, N-{6-[(5-cyclopropyl-1H-pyrazol-3-yl)amino]-5-methoxy-1,2-benzoxazol-3-yl}-2,6-dimethoxy-4-(1-methoxyethyl)benzene-1-sulfonamide] |  |  |  |  | 0.7 | 5 | 2650
3 | COc1cc2c(NS(=O)(=O)c3c(OC)cc(C4CCOCC4)cc3OC)noc2cc1Nc1cc(C2CC2)n[nH]1 [Example 265, N-{6-[(3-cyclopropyl-1 H-pyrazol-5-yl)amino]-5-methoxy-1,2-benzoxazol-3-yl}-2,6-dimethoxy-4-(oxan-4-yl)benzene-1-sulfonamide] |  |  |  |  | 0.3 | 2.3 | 918
4 | CCc1cc(Nc2cc3onc(NS(=O)(=O)c4c(OC)cc(-c5ccc(C)cn5)cc4OC)c3cc2OC)[nH]n1 [Example 236, N-{6-[(3-ethyl-1H-pyrazol-5-yl)amino]-5-methoxy-1,2-benzoxazol-3-yl}-2,6-dimethoxy-4-(5-methylpyridin-2-yl)benzene-1-sulfonamide] | 0.4 | 3.5 | 364 |  |  |  | 
5 | CCc1cc(Nc2cc3onc(NS(=O)(=O)c4c(OC)cc(-c5ccc(C)nn5)cc4OC)c3cc2OC)[nH]n1 [Example 235, N-{6-[(3-ethyl-1H-pyrazol-5-yl)amino]-5-methoxy-1,2-benzoxazol-3-yl}-2,6-dimethoxy-4-(6-methylpyridazin-3-yl)benzene-1-sulfonamide] | 0.8 | 6 | 2360 |  |  |  | 
6 | CCc1cc(Nc2cc3onc(NS(=O)(=O)c4c(OC)cc(-c5cccc(C)n5)cc4OC)c3cc2OC)[nH]n1 [Example 231, N-{6-[(3-ethyl-1H-pyrazol-5-yl)amino]-5-methoxy-1,2-benzoxazol-3-yl}-2,6-dimethoxy-4-(6-methylpyridin-2-yl)benzene-1-sulfonamide] | 1.1 | 8.8 | 859 |  |  |  | 
7 | COc1cc2c(NS(=O)(=O)c3c(OC)cc(N4CCCC4=O)cc3OC)noc2cc1Nc1cc(C2CC2)n[nH]1 [Example 246, N-{6-[(3-cyclopropyl-1H-pyrazol-5-yl)amino]-5-methoxy-1,2-benzoxazol-3-yl}-2,6-dimethoxy-4-(2-oxopyrrolidin-1-yl)benzene-1-sulfonamide] |  |  |  |  | 1 | 6.4 | 1840
8 | COc1cc2c(NS(=O)(=O)c3c(OC)cc(CN(C)C)cc3OC)noc2cc1Nc1cc(C2CC2)n[nH]1 [Example 144, N-{6-[(3-cyclopropyl-1 H-pyrazol-5-yl)amino]-5-methoxy-1,2-benzoxazol-3-yl}-4-[(dimethylamino)methyl]-2,6-dimethoxybenzene-1-sulfonamide] | 1.8 | 10.2 | 2780 |  |  |  | 
9 | COc1cc2c(NS(=O)(=O)c3cc(C)c(C)cc3OC)noc2cc1Nc1cc[nH]n1 [Example 25, 2-methoxy-N-{5-methoxy-6-[(1H-pyrazol-3-yl)amino]-1,2-benzoxazol-3-yl}-4,5-dimethylbenzene-1-sulfonamide] | 0.8 |  | 446 | 121 |  |  | 
10 | COc1cc2c(NS(=O)(=O)c3c(OC)cc(C4CCCN(C)C4)cc3OC)noc2cc1Nc1cc(C2CC2)n[nH]1 (single isomer, unassigned) [Example 149, N-{6-[(3-cyclopropyl-1H-pyrazol-5-yl)amino]-5-methoxy-1,2-benzoxazol-3-yl}-2,6-dimethoxy-4-(1-methylpiperidin-3-yl)benzene-1-sulfonamide] | 0.6 | 5.3 | 19000 |  |  |  | 
11 | CCc1cc(Nc2cc3onc(NS(=O)(=O)c4c(OC)cc(-c5cnc(C)cn5)cc4OC)c3cc2OC)[nH]n1 [Example 232, N-{6-[(3-ethyl-1H-pyrazol-5-yl)amino]-5-methoxy-1,2-benzoxazol-3-yl}-2,6-dimethoxy-4-(5-methylpyrazin-2-yl)benzene-1-sulfonamide] | 0.6 | 6.4 | 2620 |  |  |  | 
12 | COc1cc2c(NS(=O)(=O)c3c(OC)cc(C4CCCN(C)C4)cc3OC)noc2cc1Nc1cc(C2CC2)n[nH]1 (single isomer, unassigned) [Example 150, N-{6-[(3-cyclopropyl-1 H-pyrazol-5-yl)amino]-5-methoxy-1,2-benzoxazol-3-yl}-2,6-dimethoxy-4-(1-methylpiperidin-3-yl)benzene-1-sulfonamide] | 0.8 | 6.3 | 10300 |  |  |  | 
13 | COc1cc2c(NS(=O)(=O)c3c(OC)cc(C(C)OC)cc3OC)noc2cc1Nc1cc(C2CC2)[nH]n1 (single isomer, unassigned) [Example 273, N-{6-[(5-cyclopropyl-1H-pyrazol-3-yl)amino]-5-methoxy-1,2-benzoxazol-3-yl}-2,6-dimethoxy-4-(1-methoxyethyl)benzene-1-sulfonamide] |  |  |  |  | 0.6 | 4.7 | 2020
14 | CCc1cc(Nc2cc3onc(NS(=O)(=O)c4c(OC)cc(-c5ncc(C)cn5)cc4OC)c3cc2OC)[nH]n1 [Example 234, N-{6-[(3-ethyl-1H-pyrazol-5-yl)amino]-5-methoxy-1,2-benzoxazol-3-yl}-2,6-dimethoxy-4-(5-methylpyrimidin-2-yl)benzene-1-sulfonamide] | 1 | 8.5 | 1680 |  |  |  | 
15 | COc1cc2c(NS(=O)(=O)c3cc4c(cc3OC)CCCC4)noc2cc1Nc1cc[nH]n1 [Example 05, 3-Methoxy-N-{5-methoxy-6-[(1H-pyrazol-3-yl)amino]-1,2-benzoxazol-3-yl}-5,6,7,8-tetrahydronaphthalene-2-sulfonamide] | 0.5 |  | 290 | 13.6 |  |  | 
16 | COc1cc2c(NS(=O)(=O)c3c(OC)cc(C(C)(C)OC)cc3OC)noc2cc1Nc1cc(C2CC2)n[nH]1 [Example 271, N-{6-[(3-cyclopropyl-1H-pyrazol-5-yl)amino]-5-methoxy-1,2-benzoxazol-3-yl}-2,6-dimethoxy-4-(2-methoxypropan-2-yl)benzene-1-sulfonamide] |  |  |  |  | 1 | 7 | 1010
17 | COc1cc2c(NS(=O)(=O)c3c(OC)cc(-c4cccn(C)c4=O)cc3OC)noc2cc1Nc1cc(C2CC2)n[nH]1 [Example 221, N-{6-[(3-cyclopropyl-1H-pyrazol-5-yl)amino]-5-methoxy-1,2-benzoxazol-3-yl}-2,6-dimethoxy-4-(1-methyl-2-oxo-1,2-dihydropyridin-3-yl)benzene-1-sulfonamide] | 0.7 | 6.2 | 1490 |  |  |  | 
18 | COc1cc2c(NS(=O)(=O)c3c(OC)cc(-c4ccc(C)cn4)cc3OC)noc2cc1Nc1cc(C2CC2)n[nH]1 [Example 215, N-{6-[(3-cyclopropyl-1H-pyrazol-5-yl)amino]-5-methoxy-1,2-benzoxazol-3-yl}-2,6-dimethoxy-4-(5-methylpyridin-2-yl)benzene-1-sulfonamide] | 0.4 | 4.2 | 994 |  |  |  | 
